Experimental data from patent US11098336B2, “Biosynthesis of bioorthogonal amino acids” (The Regents of the University of California, priority 2017, dated 2021).

What was measured:
BesE = BesE (Streptantibioticus cattleyicolor, UniProt F8JJ27); assay: BesE hydroxylation in vitro in the presence of ascorbate and α-KG; assay type: biochemical, Streptomyces cattleya
Source text: Knockout strain of putative amino acid hydroxylase, BesE, was only capable of producing Pra. […] This lead us to believe that there might be an amino acid carrier that serves as the true substrate for BesE. Through comparative metabolomics, we were able to identify a metabolite enriched in S. cattleya ΔbesE over wildtype. This compound was also present, but at low concentration, in S. cattleya ΔbesA. We identified this compound as having mass consistent with a Pra-Glu dipeptide. When this compound was fragmented we were able to detect characteristic fragments consistent with an amide bond cleavage, supporting evidence that this compound is a Pra-Glu dipeptide.
The last dedicated enzyme involved in the biosynthesis of βes is BesE. Once we had identified Pra-Glu as the product of BesA, it became apparent that the true substrate of BesE is a Pra-Glu dipeptide. S. cattleya ΔbesB, ΔbesC, ΔbesD, and ΔbesE were unable to produce measurable amounts of the dipeptides in vivo. In comparison, ΔbesA was still able to produce βes-Glu but at lower titers when compared to S. cattleya wildtype.

cystathionine-γ-lyase = details: previously identified; cited from earlier work
BesB = biological target: T1, BesB (Streptantibioticus cattleyicolor, UniProt G8XHD7); assay: BesB terminal-alkyne (Pra) formation in vitro; isomerization, D2O exchange and PLP-conjugate trapping; assay type: biochemical, Streptomyces cattleya; details: for binding to BesB as PLP-conjugate: chemical reduction with imine-reducing reagents; for formation of Pra by BesB from substrate: in vitro
T1 construct: made in house
Procedure: We next turned our attention to formation of the terminal-alkyne. BesB belongs to a family of proteins that utilize pyrodoxyal-5′-phosphate (PLP) as cofactor. Incubating purified BesD, BesC, and BesB in the presence of iron, ascorbate, lysine, and PLP was sufficient to produce Pra in vitro. This order of events is […] to how terminal-alkynes are synthesized chemically, since biosynthesis of Pra involves elimination of an alkyl-halide to a terminal-alkyne. Terminal desaturations have previously only been observed on fatty acids and catalyzed by O2/di-iron dependent fatty acid desaturases. […] From in vitro characterization, we also found it was necessary for the amino acid substrate to be halogenated at the Cγ position.
(§1) While formation of allene-quinonoid can be mechanistically explained, there is no precedence of an enzyme catalyzed allene-alkyne isomerization. One possibility is that BesB forms α-allenyl-glycine enzymatically and isomerization occurs after α-allenyl-glycine is released from PLP. […] Another possibility is BesB produces and releases α-allenyl-glycine, and is subsequently enzymatically isomerized. […] Finally, we explored the possibility of α-allenyl-glycine binding to BesB as a PLP-conjugate by chemically reducing the whole complex with imine-reducing reagents.

BesA = BesA (Streptantibioticus cattleyicolor, UniProt G8XHD8); assay: BesA dipeptide formation in vitro with glutamate and ATP, substrate specificity; assay type: biochemical, Streptomyces cattleya; details: for activity as BesA substrate (ligation to glutamate): reacted with glutamate, ATP
Source text: We then explored the specifity of BesA by reacting glutamate with norvaline, allylglycine, and the remaining 19 canonical amino acids.
BesA shares homology to carboxylate-amine ligases, which form amides between amines and carboxylates through an ATP-dependent mechanism.

BesD from S. cattleya = BesD from S. cattleya (Streptantibioticus cattleyicolor, UniProt G8XHD5); assay: BesD enzyme-coupled assay that reports on succinate production; assay type: biochemical, Streptomyces cattleya
Source text: Activity of BesD from S. cattleya on L-lysine was first screened using an enzyme-coupled assay that reports on succinate production.

BesC = biological target: T2, BesC (Streptantibioticus cattleyicolor, UniProt F8JJ25); assay: BesC coupled reaction with BesD, cofactors and lysine; assay type: biochemical, Streptomyces cattleya; details: cofactors
T2 construct: made in house
Source text: To further characterize BesC, we then tested the ability of BesC to produce 4-Cl-allygllycine in vitro. Addition of Fe(II) to purified apo-enzyme supports the observed reaction, while omission of Fe(II) results in no reaction, supporting the Fe-dependence of the enzyme.

[1] = spontaneous isomerization of free α-allenyl-glycine in buffered solution / D2O; assay type: physicochemical
Source text: as §1

Chain of BesA (G8XHD8 whole entry): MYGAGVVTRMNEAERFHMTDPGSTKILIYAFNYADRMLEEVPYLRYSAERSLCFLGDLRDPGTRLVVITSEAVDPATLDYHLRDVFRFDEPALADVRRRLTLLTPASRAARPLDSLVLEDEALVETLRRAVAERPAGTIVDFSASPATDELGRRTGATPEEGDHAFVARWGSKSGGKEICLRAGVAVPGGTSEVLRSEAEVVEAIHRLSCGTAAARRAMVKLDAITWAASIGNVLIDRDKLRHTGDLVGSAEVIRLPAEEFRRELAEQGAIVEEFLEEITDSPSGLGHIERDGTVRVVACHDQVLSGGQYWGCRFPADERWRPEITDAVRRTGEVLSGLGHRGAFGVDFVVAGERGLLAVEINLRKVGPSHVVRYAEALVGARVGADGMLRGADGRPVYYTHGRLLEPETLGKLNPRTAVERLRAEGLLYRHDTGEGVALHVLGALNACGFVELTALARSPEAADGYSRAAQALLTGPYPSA
T1 sequence (G8XHD7 whole entry): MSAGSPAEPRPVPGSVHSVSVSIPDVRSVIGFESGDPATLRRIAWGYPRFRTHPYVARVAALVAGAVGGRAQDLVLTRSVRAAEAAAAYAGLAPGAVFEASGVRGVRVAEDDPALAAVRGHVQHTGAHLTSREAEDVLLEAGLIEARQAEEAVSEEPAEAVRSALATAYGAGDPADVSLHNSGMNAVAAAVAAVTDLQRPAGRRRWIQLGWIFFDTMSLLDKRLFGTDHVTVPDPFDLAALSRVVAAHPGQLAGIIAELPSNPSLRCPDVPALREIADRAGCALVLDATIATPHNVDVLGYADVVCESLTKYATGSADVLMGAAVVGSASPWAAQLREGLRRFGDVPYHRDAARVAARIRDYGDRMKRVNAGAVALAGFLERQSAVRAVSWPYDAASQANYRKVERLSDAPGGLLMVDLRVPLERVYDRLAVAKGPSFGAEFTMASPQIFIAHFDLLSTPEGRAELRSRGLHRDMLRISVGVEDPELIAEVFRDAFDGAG
Chain of BesD from S. cattleya (G8XHD5 whole entry): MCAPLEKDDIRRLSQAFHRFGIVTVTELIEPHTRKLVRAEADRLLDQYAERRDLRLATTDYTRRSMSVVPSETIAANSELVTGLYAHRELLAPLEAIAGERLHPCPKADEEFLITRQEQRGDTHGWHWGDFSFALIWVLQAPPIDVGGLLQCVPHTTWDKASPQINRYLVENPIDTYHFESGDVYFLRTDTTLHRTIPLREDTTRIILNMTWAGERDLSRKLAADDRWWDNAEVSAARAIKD
Chain of BesE (F8JJ27 whole entry, the tested form may be a part): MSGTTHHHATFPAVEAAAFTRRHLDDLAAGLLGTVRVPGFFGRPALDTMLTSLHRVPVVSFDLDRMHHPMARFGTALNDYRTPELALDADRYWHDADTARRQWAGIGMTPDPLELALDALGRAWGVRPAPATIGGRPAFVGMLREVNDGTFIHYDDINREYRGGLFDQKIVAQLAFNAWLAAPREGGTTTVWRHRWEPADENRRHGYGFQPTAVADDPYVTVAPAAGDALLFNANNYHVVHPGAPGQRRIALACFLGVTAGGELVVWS
T2 sequence (F8JJ25 whole entry): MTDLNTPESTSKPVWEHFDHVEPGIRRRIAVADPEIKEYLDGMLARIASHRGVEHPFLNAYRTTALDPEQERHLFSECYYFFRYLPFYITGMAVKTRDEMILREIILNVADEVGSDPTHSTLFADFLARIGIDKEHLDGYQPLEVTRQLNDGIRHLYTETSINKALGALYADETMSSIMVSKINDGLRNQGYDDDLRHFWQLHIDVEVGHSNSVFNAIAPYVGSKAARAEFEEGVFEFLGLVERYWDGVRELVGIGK

For C#CC[C@H](NC(=O)CC[C@H](N)C(=O)O)C(=O)O [Glu-Pra dipeptide, γ-Glu-α-Pra], the “reaction with BesE (hydroxylation)” value (BesE) was “able to hydroxylate”.

For C#CCC(N)C(=O)O (stereo not shown) [Pra, propargylglycine], the “inhibition of PLP proteins including cystathionine-γ-lyase” value (cystathionine-γ-lyase) is given as “mechanistic, suicide inhibitor”, the “binding to BesB as PLP-conjugate” value (BesB) is given as “able to observe Pra as a PLP bound species” and the “reaction with BesE (hydroxylation)” value (BesE) is given as “no reaction was observed”. The “Km for Pra relative to Km for Cys” value (BesA; BesA substrate) was 10 fold lower, the “kcat, Pra compared with Cys” value (BesA; BesA substrate) was “comparable” and the “activity as BesA substrate (ligation to glutamate)” value (“activity as BesA substrate” for short) (BesA) was “measurable activity”.

In the case of N=C(N)NCCC[C@H](N)C(=O)O [arginine], the “BesD activity with substrate (rate of NADH production)” value (from here on “BesD activity with substrate”) (BesD from S. cattleya) is reported as “no activity”.

In the case of C=C(Cl)CC(N)C(=O)O (stereo not shown) [4-Cl-allylglycine], the “formation of Pra by BesB from substrate” value (BesB) is reported as “able to form Pra”.

For NCCCC[C@H](N)C(=O)O [L-lysine], the “BesD activity with substrate” value (BesD from S. cattleya) was “greatest” and the “accepted as BesC substrate” value (BesC) was “accepts lysine as a substrate directly to form allylglycine”.

In the case of C=C(Br)CC(N)C(=O)O (stereo not shown) [4-Br-allylglycine], the “formation of Pra by BesB from substrate” value (BesB) is reported as “able to form Pra”.

For C=CCC(N)C(=O)O (stereo not shown) [allylglycine], the “formation of Pra by BesB from substrate” value (BesB) was “not when allylglycine is a substrate” and the “activity as BesA substrate” value (BesA) was “Pra and Cys were the only two amino acids to show any measurable activity”.

For N[C@@H](CS)C(=O)O [Cys, cysteine], the “activity as BesA substrate” value (BesA) was “measurable activity”.

In the case of CCC[C@H](N)C(=O)O [norvaline], the “BesD activity with substrate” value (BesD from S. cattleya) is reported as “no activity” and the “activity as BesA substrate” value (BesA) is reported as “Pra and Cys were the only two amino acids to show any measurable activity”.

With C=C=CC(N)C(=O)O (stereo not drawn) [α-allenyl-glycine, reference compound] the “spontaneous formation of Pra” value ([1]; buffered solution, 24 h, room temperature) was “did not produce detectable amounts of Pra”, the exchange with solvent ([1]; incubated in D2O, no enzyme) was “negligible exchange” and the “binding to BesB as PLP-conjugate” value (BesB) was “unable to bind BesB”. For the same compound, the “D2O exchange in the presence of BesB” value (BesB; incubated with BesB in D2O) was “neglible D2O exchange” and the “isomerization by BesB” value (BesB; incubated with BesB in D2O) was “no isomerization”.
